This passage reports IC50 results from patent US20260176262A1, “KRAS INHIBITORS, PREPARATION METHOD THEREFOR, AND PHARMACEUTICAL USE THEREOF” (ABBISKO THERAPEUTICS CO., LTD., priority 2021, published 2026).

As usually defined, the IC50 is the midpoint of a concentration-inhibition curve.

Where two headings read alike, the source gives them in different places.

Test [1] relates to AGS cell. Description: Anti-proliferative 2D CTG assay, AGS cells. Format: cell-based. The note with it: Homo sapiens, 72 h, AGS cells, incubated 3 days, CTG, read-out: AGS cell IC50. On the procedure: When the cell confluence was about 80%, the cells were isolated with 0.25% trypsin. Isolated cells were resuspended in 5 mL fresh cell culture medium and centrifuged for cell collection. Meanwhile, the number of cells was also calculated. The cells were then suspended in culture medium of medium concentration. The cells were placed into a 96-well plate with 1000 cells/well for AGS and 1000 cells/well for GP2D. The 96-well plate was placed in an incubator at 37° C. and incubated overnight.
1.2 Day 1 Compound Treatment From the 10 mM stock solution, with a ratio of 1:5, 10-point serial dilutions were performed. The 10× medium containing the compound was transferred into corresponding wells of the 96 wells. The final maximum compound concentration was […] and the final DMSO concentration was 0.1%. The 96-well plate was placed in a 37° C. incubator, the AGS cells were incubated for 3 days, and the GP2D cells were incubated for 4 days.
50 μL/well of detection reagent (CTG) was added to the AGS cells, and the signal was read in an Envision machine.
The percent inhibition (%) at each compound concentration was calculated from the signal in the HPE and ZPE control wells and the fluorescence signal in the individual compound wells included in each assay plate. […] The compound concentration required for inhibitory concentration at 50% (IC50) was determined using a four-parameter logarithmic dose-response equation by testing the concentration of the compound and the inhibition percentage value. The endpoint value (IC50) of the reference compound was assessed in each experiment as a quality control measure. If the endpoint value is within three times the expected value, the experiment may be considered acceptable.

Test [2] has as its target KRAS^G12D/cRAF (Homo sapiens, UniProt P01116, G12D). As to the kind of experiment: KRAS G12D/cRAF binding test (Alphalisa). The note with it: His-tagged KRAS G12D + GMPPNP, GST-tagged cRAF. On the procedure:
The compound was dissolved in 100% DMSO at a starting concentration of 5 mM and diluted in DMSO with a 3-fold serial dilution method for a total of 8 concentration points. 1 μL of the compound or DMSO at each concentration point was added into 99 μL of the experimental buffer to obtain 10× stock solution.
• 1) 4 μL of the working mixture solution of His-tagged KRAS^G12D and GMPPNP was added to the 384-well plate. • 2) The 10× compound stock solution or 1% DMSO was added to the 384-well plate. • 3) The plate was centrifuged at 1000 rpm for 1 minute. • 4) 4 μL of GST-tagged cRAF solution was added to the 384-well plate. • 5) The plate was centrifuged at 1000 rpm for 1 minute. • 6) The plate was incubated at room temperature for 15 minutes. • 7) 10 μL of detection working solution was added to the 384-well plate. • 8) The plate was centrifuged at 1000 rpm for 1 minute. • 9) The plate was incubated at room temperature for 60 minutes. • 10) The 384-well plate was placed into Envision and assay data was obtained.
The ratio for each compound concentration was calculated from the signal of the DMSO control group contained in each assay plate and the Alphalisa signal in each compound well. The compound concentration required for inhibitory concentration at 50% (IC50) was determined using a four-parameter logarithmic dose-response equation by testing the concentration of the compound and the value of the ratio. The endpoint value (IC50) of the reference compound was assessed in each experiment as a quality control measure. If the endpoint value is within three times the expected value, the experiment may be considered acceptable.
A general note: In Alpha technology, singlet oxygen from a donor bead excites a nearby acceptor bead.

KRAS^G12D/cRAF, sequence (P01116 1-188 isoform P01116-2 G12D): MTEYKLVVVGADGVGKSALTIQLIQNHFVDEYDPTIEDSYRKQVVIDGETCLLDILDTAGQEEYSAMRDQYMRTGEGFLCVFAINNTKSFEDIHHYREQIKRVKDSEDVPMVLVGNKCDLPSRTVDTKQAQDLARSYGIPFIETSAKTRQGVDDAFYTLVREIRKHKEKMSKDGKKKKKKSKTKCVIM

Regarding `[2H]C([2H])([2H])OCC12CCC(CN(c3nc(OC[C@@]45CCCN4C[C@H](F)C5)nc4c(F)c(-c5cc(O)cc6cc(Cl)c(F)c(C#C)c56)ncc34)C1)N2` (stereo partly drawn) [Example 16, 7-chloro-5-ethynyl-6-fluoro-4-(8-fluoro-2-(((2R,7aS)-2-fluorotetrahydro-1H-pyrrolizin-7a(5H)-yl)methoxy)-4-(1-((methoxy-d3)methyl)-3,8-diazabicyclo [3.2.1]octan-3-yl)pyrido[4,3-d]pyrimidin-7-yl)naphthalen-2-ol], the values for the IC50 in test [1] (class symbols) and in test [2] (class symbols) were 50 to 500 nM and greater than 500 nM, respectively.
The matching figures for `[2H]C([2H])([2H])OCC12CCC(C)(CN(c3nc(OC[C@@]45CCCN4C[C@H](F)C5)nc4c(F)c(-c5cc(O)cc6ccc(F)c(C#C)c56)ncc34)C1)N2` (stereo partly drawn) [Example 18, 5-ethynyl-6-fluoro-4-(8-fluoro-2-(((2R,7aS)-2-fluorotetrahydro-1H-pyrrolizin-7a(5H)-yl)methoxy)-4-(1-((methoxy-d3)methyl)-5-methyl-3,8-diazabicyclo [3.2.1]octan-3-yl)pyrido[4,3-d]pyrimidin-7-yl)naphthalen-2-ol]: 50 to 500 nM and 50 to 500 nM.
In the case of `C#Cc1c(F)ccc2cc(O)cc(-c3ncc4c(N5CC6CCC(CC)(C5)N6)nc(OC[C@@]56CCCN5C[C@H](F)C6)nc4c3F)c12` (stereo partly drawn) [Example 19, 4-(4-(1-ethyl-3,8-diazabicyclo[3.2.1]octan-3-yl)-8-fluoro-2-(((2R,7aS)-2-fluorotetrahydro-1H -pyrrolizin-7a(5H)-yl)methoxy)pyrido[4,3-d]pyrimidin-7-yl)-5-ethynyl-6-fluoronaphthalen-2-ol], the figures for the IC50 in test [1] (class symbols) and in test [2] (class symbols) were less than 50 nM and 50 to 500 nM, respectively.
The matching figures for `C#Cc1c(F)ccc2cc(O)cc(-c3ncc4c(N5CC6(C)CCC(C)(C5)N6)nc(OC[C@@]56CCCN5C[C@H](F)C6)nc4c3F)c12` [Example 20, 4-(4-(1,5-dimethyl-3,8-diazabicyclo[3.2.1]octan-3-yl)-8-fluoro-2-(((2R,7aS)-2-fluorotetrahydro-1H-pyrrolizin-7a(5H)-yl)methoxy)pyrido[4,3-d]pyrimidin-7-yl)-5-ethynyl-6-fluoronaphthalen-2-ol]: less than 50 nM and 50 to 500 nM.
Take `C#Cc1c(F)ccc2cc(O)cc(-c3ncc4c(N5CC6CCC(CC(F)F)(C5)N6)nc(OC[C@@]56CCCN5C[C@H](F)C6)nc4c3F)c12` (stereo partly drawn) [Example 21, 4-(4-(1-(2,2-difluoroethyl)-3,8-diazabicyclo[3.2.1]octan-3-yl)-8-fluoro-2-(((2R,7aS)-2-fluorotetrahydro-1H-pyrrolizin-7a(5H)-yl)methoxy)pyrido[4,3-d]pyrimidin-7-yl)-5-ethynyl-6-fluoronaphthalen-2-ol]: the IC50 in test [1] (class symbols) is less than 50 nM; in test [2] (class symbols), 50 to 500 nM.
The corresponding values for `C#Cc1c(F)ccc2cc(O)cc(-c3ncc4c(N5CC6CCC(C(=O)O)(C5)N6)nc(OC[C@@]56CCCN5C[C@H](F)C6)nc4c3F)c12` (stereo partly drawn) [Example 22, 3-(7-(8-ethynyl-7-fluoro-3-hydroxynaphthalen-1-yl)-8-fluoro-2-(((2R,7aS)-2-fluorotetrahydro-1H-pyrrolizin-7a(5H)-yl)methoxy)pyrido[4,3-d]pyrimidin-4-yl)-3,8-diazabicyclo[3.2.1] octan-1-carboxylic acid] are greater than 500 nM and 50 to 500 nM.
The corresponding values for `C#Cc1c(F)ccc2cc(O)cc(-c3ncc4c(N5CC6CCC(C(=O)OC)(C5)N6)nc(OC[C@@]56CCCN5C[C@H](F)C6)nc4c3F)c12` (stereo partly drawn) [Example 23, methyl 3-(7-(8-ethynyl-7-fluoro-3-hydroxynaphthalen-1-yl)-8-fluoro-2-(((2R,7aS)-2-fluorotetrahydro-1H-pyrrolizin-7a(5H)-yl)methoxy)pyrido[4,3-d]pyrimidin-4-yl)-3,8-diazabicyclo[3.2.1] octan-1-carboxylate] are 50 to 500 nM and 50 to 500 nM.
The matching figures for `C#Cc1c(F)ccc2cc(O)cc(-c3ncc4c(N5CC6CCC(CN(C)C)(C5)N6)nc(OC[C@@]56CCCN5C[C@H](F)C6)nc4c3F)c12` (stereo partly drawn) [Example 24, 4-(4-(1-((dimethylamino)methyl)-3,8-diazabicyclo[3.2.1]octan-3-yl)-8-fluoro-2-(((2R,7aS)-2-fluorotetrahydro-1H-pyrrolizin-7a(5H)-yl)methoxy)pyrido[4,3-d]pyrimidin-7-yl)-5-ethynyl-6-fluoronaphthalen-2-ol]: less than 50 nM and 50 to 500 nM.
As to `C#Cc1c(F)ccc2cc(O)cc(-c3ncc4c(N5CC6CCC(CN(C)C(C)=O)(C5)N6)nc(OC[C@@]56CCCN5C[C@H](F)C6)nc4c3F)c12` (stereo partly drawn) [Example 25, N-((3-(7-(8-ethynyl-7-fluoro-3-hydroxynaphthalen-1-yl)-8-fluoro-2-(((2R,7aS)-2-fluorotetrahydro-1H-pyrrolizin-7a(5H)-yl)methoxy)pyrido[4,3-d]pyrimidin-4-yl)-3,8-diazabicyclo[3.2.1]octan-1-yl)methyl)-N-methylacetamide], the values for the half-inhibitory concentration (IC50) in test [1] (class symbols) and in test [2] (class symbols) were greater than 500 nM and 50 to 500 nM, respectively.
`C#Cc1c(F)ccc2cc(O)cc(-c3ncc4c(N5CC6CCC(/C=C\F)(C5)N6)nc(OC[C@@]56CCCN5C[C@H](F)C6)nc4c3F)c12` (stereo partly drawn) [Example 27, 5-ethynyl-6-fluoro-4-(8-fluoro-2-(((2R,7aS)-2-fluorotetrahydro-1H-pyrrolizin-7a(5H)-yl)methoxy)-4-(1-((Z)-2-fluorovinyl)-3,8-diazabicyclo[3.2.1]octan-3-yl)pyrido[4,3-d]pyrimidin-7-yl) naphthalen-2-ol]: the IC50 turned out to be 11 nM in test [1] (numeric values) and 54 nM in test [2] (numeric values).
Turning to `C#Cc1c(F)ccc2cc(O)cc(-c3ncc4c(N5CC6CCC(/C=C/F)(C5)N6)nc(OC[C@@]56CCCN5C[C@H](F)C6)nc4c3F)c12` (stereo partly drawn) [Example 28, 5-ethynyl-6-fluoro-4-(8-fluoro-2-(((2R,7aS)-2-fluorotetrahydro-1H-pyrrolizin-7a(5H)-yl)methoxy)-4-(1-((E)-2-fluorovinyl)-3,8-diazabicyclo[3.2.1]octan-3-yl)pyrido[4,3-d]pyrimidin-7-yl) naphthalen-2-ol], the IC50 is less than 50 nM in test [1] (class symbols) and 50 to 500 nM in test [2] (class symbols).
The corresponding values for `C#Cc1c(F)ccc2cc(O)cc(-c3ncc4c(N5CC6CCC(/C=C\C)(C5)N6)nc(OC[C@@]56CCCN5C[C@H](F)C6)nc4c3F)c12` (stereo partly drawn) [Example 29, 5-ethynyl-6-fluoro-4-(8-fluoro-2-(((2R,7aS)-2-fluorotetrahydro-1H-pyrrolizin-7a(5H)-yl)methoxy)-4-(1-((Z)-prop-1-en-1-yl)-3,8-diazabicyclo[3.2.1]octan-3-yl)pyrido[4,3-d]pyrimidin-7-yl)naphthalen-2-ol] are less than 50 nM and 50 to 500 nM.
Regarding `C#Cc1c(F)ccc2cc(O)cc(-c3ncc4c(N5CC6CCC(CC(=O)OC)(C5)N6)nc(OC[C@@]56CCCN5C[C@H](F)C6)nc4c3F)c12` (stereo partly drawn) [Example 34, Methyl 2-(3-(7-(8-ethynyl-7-fluoro-3-hydroxynaphthalen-1-yl)-8-fluoro-2-(((2R,7aS)-2-fluorohexahydro-1H-pyrrolizin-7a-yl)methoxy)pyrido[4,3-d]pyrimidin-4-yl)-3,8-diazabicyclo[3.2.1]octan-1-yl)acetate], the IC50 in test [1] (class symbols) is 50 to 500 nM; in test [2] (class symbols), less than 50 nM.
As for `[2H]C([2H])([2H])OCC12CCC(CN(c3nc(OC[C@@]45CCCN4C[C@H](F)C5)nc4c(F)c(-c5cc(O)cc6ccc(F)c(C#C)c56)nc(OC)c34)C1)N2` (stereo partly drawn) [Example 36, 5-ethynyl-6-fluoro-4-(8-fluoro-2-(((2R,7aS)-2-fluorotetrahydro-1H-pyrrolizin-7a(5H)-yl)methoxy)-5-methoxy-4-(1-((methoxy-d3)methyl)-3,8-diazabicyclo[3.2.1]octan-3-yl)pyrido[4,3-d]pyrimidin-7-yl)naphthalen-2-ol], the IC50 in test [1] (class symbols) and in test [2] (class symbols) was 50 to 500 nM each time.
